According to patent publication US20260015436A1, “ANTIBODIES FOR CHELATED RADIONUCLIDES” (Hoffmann-La Roche Inc., priority 2018, published 2026):

Columns and labels:
[1] = system: BxPC3 tumors; assay: Protocol 95: TCMC saturation, CA amount and ^212Pb activity on tumor-associated radioactivity; assay type: in vivo, mice; settings: no clearing agent
Source text: In this study, nine different clearing agents based on dextran-500 were compared in terms of inhibition of ^212Pb-DOTAM association to tumors. More specifically, the experiment assessed the impact on tumor-associated radioactivity from i) TCMC saturation, ii) clearing agent-to-antibody ratio, and iii) production/purification method. In addition, the tumor uptake was compared after injection of 10 or 30 μCi of ^212Pb-DOTAM, without pretargeting or CA, to assess whether radioactivity saturation of the tumor was achieved already at the lower dose.
PRIT-0165 (100 μg per 100 μL) was administered i.v., followed three days later by dextran-500-based clearing reagents (10-170 μg per 100 μL) with varying TCMC substitution (10-100%). Groups J and K received PBS instead of clearing agent. Two hours later, mice were injected i.v. with 100 μL of the respective ^212Pb-DOTAM solutions (10 or 30 μCi).
Mice were sacrificed and necropsied 24 hours after injection of ^212Pb-DOTAM. Blood, bladder, spleen, kidneys, liver, lung, muscle, tail, and tumors were collected, weighed and measured for radioactivity content, and the % ID/g subsequently calculated.

[2] = system: WSU-DLCL2 tumors; assay: Protocol 162: CD20-PRIT efficacy; assay type: in vivo, SCID mice; settings: multiple injections of 20 μCi (PRIT); result in words
Method: The aim of this study was to show proof-of-concept of the treatment regimen developed for CEA-PRIT directed against an alternative target: cluster of differentiation 20 (CD20). The therapeutic efficacy was evaluated after 3 cycles of CD20-PRIT in mice bearing subcutaneous WSU-DLCL2 tumors. Comparisons were also made with: 1-step CD20-RIT, using BsAbs that were pre-incubated with ^212Pb-DOTAM before injection; with rituximab, a type I monoclonal antibody directed against CD20 and a reference in treatment of CD20+ diseases; and with GA101, a type II monoclonal antibody also directed against CD20.
Animals were treated according to the experimental schedule illustrated in FIG. 59. Solid WSU-DLCL2 xenografts were established in SCID mice aged 8 weeks on study day 0 by subcutaneous injection of 1.5×10^5 cells into the right flank. […]
Mice in groups H, I, and L were sacrificed and necropsied for biodistribution purposes 24 hours after their first and only injection of ^212Pb-DOTAM or ^212Pb-DOTAM-BsAb; groups J and K were sacrificed and necropsied 24 hours after their second and third ^212Pb-DOTAM injection, respectively. […] Collected samples were weighed and then measured for radioactivity using a 2470 WIZARD^2 automatic gamma counter (PerkinElmer), and the percent injected dose per gram of tissue (% ID/g) subsequently calculated, including corrections for decay and background. […]

## NC(=O)CN1CCN(CC(N)=O)CCN(CC(N)=O)CCN(CC(N)=O)CC1.[212Pb+2] [^212Pb-DOTAM]
[1]; 10 μCi
  tumor accumulation (±SD, n=3): 72.38±10.83 % ID/g
[1]; 30 μCi
  tumor accumulation (±SD, n=3): 107.74±14.71 % ID/g
[2]
  BW development: well tolerated
